From patent publication US20090247641A1, “HYDRAZONE AGENTS TO TREAT CUTANEOUS LESIONS” (priority 2005, published 2009)

Experiments:
Type in all cases: in vivo, human
[1] = test system: plantar warts; test: Treatment of plantar warts with A-007 0.25% gel (case report)
Excerpt: Prior attempts at local surgical removal of the warts had failed. […] A-007 was applied in a 0.25% gel (2 g) nightly for three nights and covered with an absorbent pad to allow maximum penetration.

[2] = test system: cervical warts, CIN II, high risk HPV infection; test: Treatment of cervical warts, CIN II and high risk HPV infection with 0.25% gel (case report)
Procedure: A person had multiple abnormal pap smears with hair loss and skin changes secondary to hormonal imbalance. […] They were treated with 2 grams per day of 0.25% gel applied to the vagina for five days, for a total topical dose of 10 grams.

[3] = test system: condyloma on cervix, low risk HPV in the 6/11 category; test: Treatment of condyloma and HPV infection with 0.25% A-007 gel (case report)
Procedure: They also had atypical squamous epithelium and CIN with warts. The cervix was inflamed with squamous exo-cervical dysplasia and a warty labial growth. They were treated with 2 grams per day of 0.25% A-007 gel applied to the vagina for five days, for a total topical dose of 10 grams. […] The HPV infection was also eliminated, and was absent after 24 months of observation.

O=[N+]([O-])c1ccc(NN=C(c2ccc(O)cc2)c2ccc(O)cc2)c([N+](=O)[O-])c1 [A-007, 4,4′-dihydroxybenzophenone-2,4-dinitrophenylhydrazone]
appearance of treated area ([1]; 0.25% gel (2 g) nightly for three nights, after 7 days): new skin appeared which was soft with no area of induration | recurrence of warts and induration ([1]; after two months of follow-up observation): Neither the warts nor induration returned | time until treated area began peeling and new skin appeared ([1]; person, left foot, 0.25% gel (2 g) nightly for three nights under absorbent pad): 7 days | warty lesions on cervix ([2]; 2 grams per day of 0.25% gel, vagina, five days): disappeared | CIN outcome ([2]; CIN II, 2 grams per day of 0.25% gel, vagina, five days): resolved | status at follow-up ([2]; after 18 months of observation): stable | HPV infection status ([2]; high risk HPV at baseline, 2 grams per day of 0.25% gel, vagina, five days): converted to low grade | toxicities ([2]; person, 2 grams per day of 0.25% gel applied to the vagina for five days, total 10 grams): No toxicities were observed | external warty mass (labial growth) ([3]; 2 grams per day of 0.25% A-007 gel, vagina, five days): fell off the labia | HPV infection at follow-up ([3]; after 24 months of observation): absent | HPV infection status ([3]; low risk HPV 6/11 at baseline, 2 grams per day of 0.25% A-007 gel, vagina, five days): eliminated | cervical condyloma ([3]; person, 2 grams per day of 0.25% A-007 gel applied to the vagina for five days, total 10 grams): disappeared
